Measured values: ChEMBL document CHEMBL1201862, “PubChem BioAssay data set” (2004)
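Protocol summary: plate cells (96-well), add compound at 5 concentrations, incubate 48 h, interpolate endpoints linearly. GI50 = concentration required for 50% inhibition of growth.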 Calls of active or inactive are those of the source. No stated cut-off is given here; in the data, active = GI50 up to about 1.1 µM and inactive = higher.

How the values were obtained:
Experiment in all cases: inhibition of tumour cell growth, NCI panel, 48 h
OVCAR-5 = tested on: OVCAR-5
UACC-257 = tested on: UACC-257
OVCAR-3 = tested on: OVCAR-3
HOP-62 = tested on: HOP-62
UACC-62 = tested on: UACC-62
RXF 393 = tested on: RXF 393
SW-620 = tested on: SW-620
A549 = tested on: A549
SNB-19 = tested on: SNB-19
OVCAR-4 = tested on: OVCAR-4
LOX IMVI = tested on: LOX IMVI
SR = tested on: SR
HL-60 = tested on: HL-60
HCC 2998 = tested on: HCC 2998
NCI-H522 = tested on: NCI-H522
NCI-H226 = tested on: NCI-H226
UO-31 = tested on: UO-31

Measured: GI50

C=C(C)CC(C(=O)O)c1ccc(C)cc1 (stereo unspecified)
inactive: OVCAR-5 > 100 µM | UACC-257 > 100 µM | OVCAR-3 > 100 µM | HOP-62 > 100 µM | UACC-62 > 100 µM | RXF 393 > 100 µM | SW-620 > 100 µM | A549 > 100 µM | SNB-19 > 100 µM | OVCAR-4 > 100 µM | LOX IMVI > 100 µM | SR > 100 µM

COc1cc(Nc2nc3cc(C(F)(F)F)ccc3nc2-c2ccccc2)cc(OC)c1OC
inactive: HL-60 39.3 µM | OVCAR-5 > 100 µM | UACC-257 73.6 µM | OVCAR-3 73.3 µM | HOP-62 18.9 µM | UACC-62 75.2 µM | HCC 2998 > 100 µM | RXF 393 18.1 µM | SW-620 > 100 µM | A549 92.3 µM | OVCAR-4 5.82 µM | NCI-H522 37.8 µM | LOX IMVI > 100 µM | NCI-H226 > 100 µM | UO-31 > 100 µM | SR > 100 µM

NC(=O)/N=C1\NC(Cc2ccccc2)C(=O)N1Cc1ccccc1 (stereo unspecified)
inactive: HL-60 > 100 µM | OVCAR-5 > 100 µM | UACC-257 > 100 µM | OVCAR-3 > 100 µM | HOP-62 > 100 µM | UACC-62 > 100 µM | HCC 2998 > 100 µM | RXF 393 > 100 µM | SW-620 > 100 µM | A549 > 100 µM | SNB-19 > 100 µM | OVCAR-4 > 100 µM | LOX IMVI > 100 µM | NCI-H226 > 100 µM | UO-31 > 100 µM | SR > 100 µM

Cc1c2ncccc2c(C)c2c1[nH]c1ccccc12
inactive: OVCAR-5 14.1 µM | UACC-257 16.6 µM | OVCAR-3 14.3 µM | HOP-62 11.8 µM | UACC-62 15.3 µM | HCC 2998 12.3 µM | RXF 393 13 µM | SW-620 6.79 µM | A549 6.78 µM | SNB-19 13.8 µM | OVCAR-4 18 µM | NCI-H522 13 µM | LOX IMVI 5.66 µM | NCI-H226 12.7 µM | UO-31 > 10 µM

COc1cc(-c2cc(=O)c3cc(C)c(C)c(C(=O)O)c3o2)cc(OC)c1OC
inactive: OVCAR-5 > 100 µM | UACC-257 > 100 µM | OVCAR-3 > 100 µM | HOP-62 > 100 µM | UACC-62 > 100 µM | HCC 2998 > 100 µM | SW-620 > 100 µM | A549 > 100 µM | SNB-19 > 100 µM | OVCAR-4 > 100 µM | NCI-H522 67.6 µM | LOX IMVI > 100 µM | UO-31 > 100 µM

CN(C)CC1CCCC/C1=N/OC(=O)c1ccc(Cl)c(Cl)c1 (stereo unspecified)
inactive: HL-60 > 100 µM | OVCAR-5 > 100 µM | UACC-257 > 100 µM | OVCAR-3 > 100 µM | HOP-62 > 100 µM | UACC-62 > 100 µM | HCC 2998 > 100 µM | RXF 393 > 100 µM | SW-620 > 100 µM | A549 > 100 µM | OVCAR-4 > 100 µM | NCI-H522 > 100 µM | LOX IMVI > 100 µM | NCI-H226 > 100 µM | UO-31 70.6 µM | SR > 100 µM

COc1ccc(/C(=C/n2ccnc2)C(O)c2ccc(OC)c(OC)c2)cc1OC (stereo unspecified)
inactive: HL-60 28.8 µM | OVCAR-5 > 100 µM | UACC-257 > 100 µM | OVCAR-3 > 100 µM | HOP-62 > 100 µM | RXF 393 33.3 µM | SW-620 > 100 µM | SNB-19 > 100 µM | OVCAR-4 > 100 µM | LOX IMVI > 100 µM | NCI-H226 > 100 µM | UO-31 > 100 µM | SR 12.3 µM

CC1=NC(C(C)C)C(=O)O1 (stereo unspecified)
inactive: HL-60 > 100 µM | OVCAR-5 > 100 µM | UACC-257 > 100 µM | OVCAR-3 > 100 µM | HOP-62 > 100 µM | UACC-62 > 100 µM | HCC 2998 > 100 µM | SW-620 13.1 µM | SNB-19 > 100 µM | OVCAR-4 > 100 µM | NCI-H522 > 100 µM | NCI-H226 > 100 µM | UO-31 > 100 µM

O=C(O)C(CS)Nc1c2ccccc2[n+]([O-])c2ccccc12 (stereo unspecified)
inactive: HL-60 50.2 µM | OVCAR-5 > 100 µM | UACC-257 > 100 µM | OVCAR-3 > 100 µM | HOP-62 > 100 µM | UACC-62 > 100 µM | HCC 2998 > 100 µM | SW-620 > 100 µM | A549 > 100 µM | SNB-19 > 100 µM | OVCAR-4 > 100 µM | NCI-H522 56.9 µM | LOX IMVI > 100 µM | NCI-H226 > 100 µM | UO-31 49.8 µM

Cc1ccc2ccc(-c3ccccc3)c3c2c1C(=O)c1ccccc1C3=O
inactive: HL-60 > 100 µM | OVCAR-5 > 100 µM | UACC-257 > 100 µM | OVCAR-3 71.8 µM | HOP-62 54.3 µM | UACC-62 92.7 µM | HCC 2998 > 100 µM | RXF 393 61 µM | SW-620 > 100 µM | A549 > 100 µM | SNB-19 64.1 µM | NCI-H522 36.1 µM | LOX IMVI > 100 µM | NCI-H226 > 100 µM | UO-31 > 100 µM | SR > 100 µM

CCCCCCCCC(=O)CCCCCCCCC(=O)O
inactive: HL-60 4.09 µM | OVCAR-5 24.8 µM | UACC-257 > 100 µM | OVCAR-3 18.8 µM | HOP-62 26.9 µM | UACC-62 20.1 µM | RXF 393 27.4 µM | SW-620 39.7 µM | A549 19.7 µM | SNB-19 61.1 µM | OVCAR-4 50.2 µM | NCI-H522 25.5 µM | LOX IMVI 14.8 µM | NCI-H226 27.2 µM | UO-31 33.3 µM | SR 16.2 µM

COC1CCCc2c(OC(C)=O)ccc(OC(C)=O)c21 (stereo unspecified)
inactive: HL-60 > 100 µM | OVCAR-5 > 100 µM | OVCAR-3 > 100 µM | HOP-62 > 100 µM | UACC-62 > 100 µM | HCC 2998 > 100 µM | RXF 393 > 100 µM | SW-620 > 100 µM | A549 > 100 µM | SNB-19 > 100 µM | OVCAR-4 35 µM | LOX IMVI > 100 µM | NCI-H226 > 100 µM | UO-31 > 100 µM | SR > 100 µM

CCCCCCCC/C=C1\CCC(CN(C)C)C1=O (stereo unspecified)
inactive: HL-60 5.05 µM | OVCAR-5 20.2 µM | UACC-257 5.89 µM | OVCAR-3 7.18 µM | HOP-62 12.2 µM | UACC-62 7.41 µM | HCC 2998 9.57 µM | SW-620 3.33 µM | A549 19.3 µM | SNB-19 16.7 µM | OVCAR-4 13.7 µM | NCI-H522 3.54 µM | LOX IMVI 1.92 µM | NCI-H226 22.3 µM | UO-31 11 µM | SR 3.15 µM

O=S(O)CCCCSSCc1ccccc1CSSCCCCS(=O)O
inactive: HL-60 5.69 µM | OVCAR-5 95.1 µM | UACC-257 3.87 µM | OVCAR-3 10.5 µM | HOP-62 35.3 µM | UACC-62 10.5 µM | HCC 2998 19 µM | RXF 393 7.94 µM | SW-620 25.8 µM | A549 28.8 µM | SNB-19 56.2 µM | OVCAR-4 4.21 µM | NCI-H522 4.43 µM | LOX IMVI 10.5 µM | UO-31 11.1 µM

C=C[C@@]1(C)CCC2(O)C(CCC3C2(C)CCC[C@@]3(C)COC(=O)CC(=O)OC)C1 (stereo partly specified)
inactive: HL-60 19.2 µM | OVCAR-5 20.1 µM | UACC-257 20.2 µM | OVCAR-3 17.3 µM | HOP-62 18.5 µM | UACC-62 17.2 µM | HCC 2998 61.4 µM | RXF 393 23.7 µM | SW-620 17.6 µM | A549 17.6 µM | SNB-19 31.6 µM | OVCAR-4 17.5 µM | NCI-H522 16.3 µM | LOX IMVI 16.5 µM | NCI-H226 26.2 µM | UO-31 22.6 µM | SR 22.2 µM

COc1ccc(C2Oc3cc(OC)c(O)c(C)c3[C@H]2C)cc1 (stereo partly specified)
inactive: HL-60 18.2 µM | OVCAR-5 > 100 µM | UACC-257 > 100 µM | OVCAR-3 > 100 µM | HOP-62 > 100 µM | UACC-62 > 100 µM | HCC 2998 > 100 µM | RXF 393 23 µM | SW-620 66.4 µM | A549 > 100 µM | SNB-19 26.9 µM | OVCAR-4 80.4 µM | NCI-H522 35.2 µM | LOX IMVI 40.5 µM | NCI-H226 26.9 µM | UO-31 17.1 µM

O=C(O)c1ccccc1NS(=O)(=O)c1ccc(Cl)cc1
inactive: OVCAR-5 > 100 µM | UACC-257 > 100 µM | HOP-62 > 100 µM | UACC-62 > 100 µM | HCC 2998 > 100 µM | RXF 393 > 100 µM | SW-620 > 100 µM | A549 > 100 µM | SNB-19 > 100 µM | OVCAR-4 > 100 µM | NCI-H522 54 µM | LOX IMVI > 100 µM | NCI-H226 > 100 µM | UO-31 > 100 µM

C=C1C(=O)O[C@H]2[C@H]1[C@H](OC(=O)/C(C)=C\C)CC(=C)[C@@H]1[C@H](O)[C@H]3O[C@@]3(C)[C@@]12O [EUPATUNDIN]
inactive: OVCAR-3 > 100 µM | HOP-62 > 100 µM | UACC-62 > 100 µM | HCC 2998 > 100 µM | SW-620 > 100 µM | A549 > 100 µM | SNB-19 > 100 µM | OVCAR-4 > 100 µM | NCI-H522 > 100 µM | LOX IMVI > 100 µM | UO-31 > 100 µM | SR > 100 µM
